Experiment: Acute toxicity (LD50) in rats
Conditions: rat, in vivo
Method: The compound for use as the active ingredient in the hepatic graft preservative composition and hepatic graft preserving method of this invention is a very safe substance with an extremely low toxic potential and, as such, can be used with advantage for the purposes of this invention. [e.g. the LD50 values of L-ascorbyl DL-α-tocopheryl phosphate potassium (hereinafter referred to briefly as EPC-K)≥5 g/kg p.o. (rats) and≥100 mg/kg i.v. (rats)].

Which results are given for Cc1c(C)c2c(c(C)c1OP(=O)(O)OC1=C(O)[C@@H]([C@@H](O)CO)OC1=O)CCC(C)(CCCC(C)CCCC(C)CCCC(C)C)O2 (mixture of isomers) [EPC-K, L-Ascorbyl DL-α-tocopheryl phosphate potassium]?
LD50 (iv, i.v. (rats)): ≥ 100 mg/kg; LD50 (po, p.o. (rats)): ≥ 5000 mg/kg
